We go through 18 compounds from ChEMBL document CHEMBL6115031, “Structure-Based Optimization of Moracin M as Potent and Selective PDE4 Inhibitors with Antipsoriasis Effects” (J Med Chem, 2025).

The source made the active and inactive calls. The calls are words filed in the database; no cut-off is given here.

Data set [1] is described as follows: Metabolic stability in rat liver microsomes assessed as half life at 1 uM incubated upto 60 mins in presence of NADPH by LC-MS/MS analysis. Format: ADME, Microsome. (In general: Liver microsomes are a subcellular fraction often used to study metabolism.)
Data set [2] deals with T1, 3',5'-cyclic-AMP phosphodiesterase 4D (Homo sapiens, UniProt Q08499). Kind of data set: Inhibition of human PDE4D2 (86 to 413 residues) extracted from Escherichia coli BL21 cells using 3H-cAMP/3H-cGMP as substrate preincubated with compound for 15 mins followed by substrate addition by liquid scintillation counter.
The target of data set [3] is T1, 3',5'-cyclic-AMP phosphodiesterase 4D. Kind of data set: Inhibition of PDE4D (unknown origin).
In data set [4] the test system is Mus musculus. Kind of data set: Anti-inflammatory activity in IMQ-induced psoriasis in female BALB/c mouse assessed as reduction in CCL-20 mRNA level at 20 mg/kg administered topically as 0.3 % ointment pretreated with IMQ for 6 hrs followed by compound addition once daily for 7 days by q-PCR analysis. Type of data set: functional, organism-based. Conditions: time 7.0 day.

Data set [5] has as its system Mus musculus. Kind of data set: Anti-inflammatory activity in IMQ-induced psoriasis in female BALB/c mouse assessed as reduction in IL-17 mRNA level at 20 mg/kg administered topically as 0.3 % ointment pretreated with IMQ for 6 hrs followed by compound addition once daily for 7 days by q-PCR analysis. Format: functional, organism-based. As to conditions: time 7.0 day.

Data set [6] concerns HaCaT. Kind of data set: Inhibition of CREB phosphorylation in human HaCaT cells assessed as increase in pCREB/CREB ratio at 20 uM incubated for 2 hrs by Western blotting analysis. Format: cell-based. A general note: In western blotting, separated proteins are transferred to a membrane and probed.
For data set [7], the system named is Mus musculus. Kind of data set: Anti-inflammatory activity in IMQ-induced psoriasis in female BALB/c mouse assessed as reduction in IL-1beta mRNA level at 20 mg/kg administered topically as 0.3 % ointment pretreated with IMQ for 6 hrs followed by compound addition once daily for 7 days by q-PCR analysis. Format: functional, organism-based. As to conditions: time 7.0 day.

Data set [8] has as its system Mus musculus. Nature of the data set: Anti-psoriasis effect in IMQ-induced female BALB/c mouse model assessed as reduction in abnormal rete ridges at 20 mg/kg administered topically as 0.3 % ointment pretreated with IMQ for 6 hrs followed by compound addition once daily for 7 days by H and E staining based analysis. As to conditions: time 7.0 day. Type of data set: functional, organism-based.

The subject of data set [9] is Mus musculus. Nature of the data set: Anti-inflammatory activity in IMQ-induced psoriasis in female BALB/c mouse assessed as reduction in IL-6 mRNA level at 20 mg/kg administered topically as 0.3 % ointment pretreated with IMQ for 6 hrs followed by compound addition once daily for 7 days by q-PCR analysis. Format: functional, organism-based. As to conditions: time 7.0 day.

The test system of data set [10] is Mus musculus. Kind of data set: Anti-psoriasis effect in IMQ-induced female BALB/c mouse model assessed as reduction in fibroblast proliferation at 20 mg/kg administered topically as 0.3 % ointment pretreated with IMQ for 6 hrs followed by compound addition once daily for 7 days by H and E staining based analysis. As to conditions: time 7.0 day. Format: functional, organism-based.

Data set [11] deals with Mus musculus. Nature of the data set: Anti-inflammatory activity in IMQ-induced psoriasis in female BALB/c mouse assessed as reduction in TNF-alpha mRNA level at 20 mg/kg administered topically as 0.3 % ointment pretreated with IMQ for 6 hrs followed by compound addition once daily for 7 days by q-PCR analysis. Type of data set: functional, organism-based. As to conditions: time 7.0 day.

Data set [12] relates to Mus musculus. Nature of the data set: Anti-inflammatory activity in IMQ-induced psoriasis in female BALB/c mouse assessed as reduction in CXCL-2 mRNA level at 20 mg/kg administered topically as 0.3 % ointment pretreated with IMQ for 6 hrs followed by compound addition once daily for 7 days by q-PCR analysis. Conditions: time 7.0 day. Type of data set: functional, organism-based.

The subject of data set [13] is HaCaT. Nature of the data set: Anti-psoriasis activity in M5-stimulated human HaCaT cells assessed as restoration of cAMP level at 20 uM incubated for 2 hrs by competitive ELISA. Type of data set: functional, cell-based. A general note: Cyclic AMP is a second messenger, typically raised through Gs and lowered through Gi signalling.
Data set [14] has as its system Mus musculus. Kind of data set: Anti-psoriasis effect in IMQ-induced female BALB/c mouse model assessed as reduction in spinous layer thickness at 20 mg/kg administered topically as 0.3 % ointment pretreated with IMQ for 6 hrs followed by compound addition once daily for 7 days by H and E staining based analysis. Type of data set: functional, organism-based. As to conditions: time 7.0 day.

Data set [15] concerns Mus musculus. Kind of data set: Anti-psoriasis effect in IMQ-induced female BALB/c mouse model assessed as reduced bleeding in dermal papilla layers at 20 mg/kg administered topically as 0.3 % ointment pretreated with IMQ for 6 hrs followed by compound addition once daily for 7 days by H and E staining based analysis. Type of data set: functional, organism-based. Conditions: time 7.0 day.

T1 sequence (Q08499 whole entry, the tested form may be a part): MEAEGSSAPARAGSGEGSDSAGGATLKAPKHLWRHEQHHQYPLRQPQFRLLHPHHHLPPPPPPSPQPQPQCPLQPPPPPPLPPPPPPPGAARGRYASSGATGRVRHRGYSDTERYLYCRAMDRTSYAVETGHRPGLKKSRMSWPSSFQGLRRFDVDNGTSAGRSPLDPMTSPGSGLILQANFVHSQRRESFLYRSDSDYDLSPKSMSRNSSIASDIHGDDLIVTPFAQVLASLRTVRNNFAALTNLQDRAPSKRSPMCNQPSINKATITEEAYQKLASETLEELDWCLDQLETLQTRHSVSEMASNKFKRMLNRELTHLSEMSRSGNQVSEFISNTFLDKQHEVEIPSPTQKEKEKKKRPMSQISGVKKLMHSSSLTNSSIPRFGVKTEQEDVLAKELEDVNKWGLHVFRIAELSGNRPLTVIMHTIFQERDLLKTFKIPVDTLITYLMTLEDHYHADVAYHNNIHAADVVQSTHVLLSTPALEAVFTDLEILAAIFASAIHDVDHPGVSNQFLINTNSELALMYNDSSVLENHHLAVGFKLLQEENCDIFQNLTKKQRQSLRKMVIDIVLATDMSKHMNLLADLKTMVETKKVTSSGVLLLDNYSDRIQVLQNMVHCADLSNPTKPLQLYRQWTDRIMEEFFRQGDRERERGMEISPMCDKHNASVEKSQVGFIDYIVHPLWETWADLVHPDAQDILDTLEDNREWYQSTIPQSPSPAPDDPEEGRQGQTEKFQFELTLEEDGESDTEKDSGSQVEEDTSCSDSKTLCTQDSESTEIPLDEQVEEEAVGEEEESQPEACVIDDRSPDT

In general, half-life refers to the time in which the quantity being followed falls by half. In general, IC50 refers to the concentration at which inhibition is half-maximal. Regarding `COC(=O)[C@@H]1C[C@H](Oc2c(O)ccc3cc(-c4ccc(OC(F)F)c(OCC5CC5)c4)oc23)CN1`, the half-life at 1 µM in data set [1] is 4 min. In addition, in data set [2], the IC50 worked out at 10.9 nM.

On to `O=C(O)COc1c(O)ccc2cc(-c3ccc(OC(F)F)c(OCC4CC4)c3)oc12`, for which the IC50 in [2] amounted to 23.7 nM.

In the case of `COC(=O)[C@H]1C[C@H](Oc2c(O)ccc3cc(-c4ccc(OC(F)F)c(OCC5CC5)c4)oc23)CN1`, the half-life at 1 µM in data set [1] was 3.7 min. Besides, the IC50 in data set [2] amounted to 30 nM.

Take `O=C(O)CCCOc1c(O)ccc2cc(-c3ccc(OC(F)F)c(OCC4CC4)c3)oc12`: the half-life at 1 µM in data set [1] was determined as 1.2 min. Further, in [2], the IC50 was determined as 22 nM.

For `O=C(O)[C@H]1C[C@@H](Oc2c(O)ccc3cc(-c4ccc(OC(F)F)c(OCC5CC5)c4)oc23)CN1`, the IC50 in data set [2] is greater than 100 nM.

Turning to `N[C@@H](CCOc1c(O)ccc2cc(-c3ccc(OC(F)F)c(OCC4CC4)c3)oc12)C(=O)O`, the IC50 in [2] is greater than 100 nM.

Regarding `COC(=O)CCCCOc1c(O)ccc2cc(-c3ccc(OC(F)F)c(OCC4CC4)c3)oc12`, the half-life at 1 µM in [1] came out at 3.6 min. Also, in data set [2], the IC50 turned out to be 23.5 nM.

`O=C(O)[C@H]1C[C@H](Oc2c(O)ccc3cc(-c4ccc(OC(F)F)c(OCC5CC5)c4)oc23)CN1`: the IC50 in data set [2] was greater than 100 nM.

With `O=C(O)[C@@H]1C[C@H](Oc2c(O)ccc3cc(-c4ccc(OC(F)F)c(OCC5CC5)c4)oc23)CN1`, the IC50 in data set [2] was greater than 100 nM.

Regarding `O=C(O)[C@@H]1C[C@@H](Oc2c(O)ccc3cc(-c4ccc(OC(F)F)c(OCC5CC5)c4)oc23)CN1`, the IC50 in [2] is greater than 100 nM.

As to `Oc1ccc2cc(-c3ccc(OC(F)F)c(OCC4CC4)c3)oc2c1O`, the half-life at 1 µM in data set [1] is 21 min. For the same compound, the IC50 in [3] and in data set [2] was 421 nM in each case.

Consider `COC(=O)[C@@H](N)CCOc1c(O)ccc2cc(-c3ccc(OC(F)F)c(OCC4CC4)c3)oc12`, for which the half-life at 1 µM in data set [1] amounted to 4.8 min. Besides, the IC50 in [2] came to 29.5 nM.

Take `COC(=O)[C@@H]1C[C@@H](Oc2c(O)ccc3cc(-c4ccc(OC(F)F)c(OCC5CC5)c4)oc23)CN1`: the half-life at 1 µM in data set [1] was 3.4 min. Moreover, in [2], the IC50 was 43.7 nM.

For `CCOC(=O)CCCOc1c(O)ccc2cc(-c3ccc(OC(F)F)c(OCC4CC4)c3)oc12`, the IC50 in [2] stood at 22.7 nM.

On to `COC(=O)CCCOc1c(O)ccc2cc(-c3ccc(OC(F)F)c(OCC4CC4)c3)oc12`, for which the half-life at 1 µM in data set [1] amounted to 0.7 min. For the same compound, the IC50 in data set [2] came to 14.4 nM.

For `O=C(O)CCCCOc1c(O)ccc2cc(-c3ccc(OC(F)F)c(OCC4CC4)c3)oc12`, the half-life at 1 µM in [1] was 92.4 min. Besides, the IC50 in data set [2] was 20.6 nM.

Regarding `COC(=O)COc1c(O)ccc2cc(-c3ccc(OC(F)F)c(OCC4CC4)c3)oc12`, the IC50 in [2] stood at 39.1 nM.

As for `O=C(Nc1c(Cl)cncc1Cl)c1ccc(OC(F)F)c(OCC2CC2)c1`, the result in the data set with Mus musculus [4], in the data set on Mus musculus [5], with Mus musculus [7], with Mus musculus [8], with Mus musculus [9] and in the data set on Mus musculus [10] was Active. The outcome in the data set with Mus musculus [11], in the data set with Mus musculus [12], with HaCaT [13], with Mus musculus [14] and with Mus musculus [15] was Active. Further, the inhibition entry in the data set with HaCaT [6] was “Active”.
